Results published in US10087436B2, “Electrophysiologically mature cardiomyocytes and methods for making same” (The Regents of the University of California, priority 2014, dated 2018).

Test system: Ad-Kir2.1-silenced ventricular hESC-CMs
Experiment: Addition of the IK1 blocker Ba2+ to Ad-Kir2.1-silenced ventricular hESC-CMs (patch-clamp)
Format: cell-based, human
Conditions: 200 μM Ba2+
Procedure: HESC- and hiPSC-CMs were dissociated into single cells with 1 mg/ml collagenase II and plated on 0.1% gelatin-coated glass coverslips. Electrophysiological experiments were performed using whole-cell patch-clamp technique with an Axopatch 200B amplifier and the pClamp9.2 software (Axon Instruments Inc., Foster City, Calif.). Pipette solution was consisted of (mM): 110 K^+ aspartate, 20 KCl, 1 MgCl2, 0.1 Na-GTP, 5 Mg-ATP, 5 Na2-phospocreatine, 1 EGTA and 10 HEPES, with pH of 7.3. The external Tyrode's solution consisted of (mM): 140 NaCl, 5 KCl, 1 CaCl2, 1 MgCl2, 10 glucose, and 10 HEPES with pH of 7.4. Voltage- and current-clamp recordings were performed at 37° C. within 24 to 48 hours after adenovirus transduction. ESC-CMs were categorized into pacemaker, atrial or ventricular phenotypes based on the maximum diastolic potential (MDP), maximum rate of rise of the AP and AP duration (APD). […] Atrial cells with a triangular AP profile have a faster rate of rise than pacemaker cells, more hyperpolarized MDP or resting membrane potential (RMP), and intermediate APD. […] Different protocols as given in insets were employed to elicit the corresponding currents. […] All blockers were purchased from Sigma.

[Ba+2] [Ba^2+]
firing phenotype upon addition of Ba2+: spontaneously fired APs
